Data on 2 molecules can be found in article PMC5958098, “The trimeric solution structure and fucose-binding mechanism of the core fucosylation-specific lectin PhoSL” (Scientific Reports, 2018).

One series addresses T1, PhoSL (Pholiota squarrosa, UniProt A0A384E107).
T1 construct: chemically synthesized 40-residue peptide, free termini, no tag, reduced Cys (DTT), homotrimer; […]; repeat 1 of a 180-residue polypeptide; differs from literature peptide at positions 23, 27, 35, 40
Nature of the series: NMR chemical shift titration. The format is binding. Particulars: 20 mM Tris-HCl pH 7.5, 0.2 mM DTT, 308 K; 50 μM peptide (as monomer); average for the two anomers.

Series [1] concerns the molecule itself. The experiment in a line: SEC; Superdex 75 10/300 with marker proteins; 96 μM PhoSL peptide; 20 mM Tris-HCl pH 7.5, 100 mM NaCl.

Regarding `C[C@@H]1OC(O)[C@@H](O)[C@H](O)[C@@H]1O` (mixture of isomers) [L-fucose], the Kd at PhoSL is 5.9 ± 0.2 mM.

B1: PhoSL peptide (core α1–6 fucosylation-specific lectin from Pholiota squarrosa), chemically synthesized, 40 residues (peptide)
chain: APVPVTKLVCDGDTYKCTAYLDYGDGKWVAQWDTAVFHTT
notes: PhoSL lectin of Pholiota squarrosa; it corresponds to the first of three PhoSL-like repeats of the 180-residue polypeptide; numbers count on: the 40-residue peptide; No N-terminal acetylation and no C-terminal amidation; Cys10 and Cys17 were reduced (DTT) in the NMR samples; Homotrimer by gel filtration combined with cross-linking, and by the NMR structure; also called PhoSL trimer; source: …
For the molecule B1, in series [1], the “stoichiometry N” value came out at 3.
